From ChEMBL document CHEMBL4732255, “Evaluation of the antiproliferative activity of 106 marine microbial metabolites against human lung cancer cells and potential antiproliferative mechanism of purpuride G” (Bioorg Med Chem Lett, 2021) come the findings set out here.

Where only a bound is given, the exact number is not on record here.

Assay [1] concerns A549. Briefly: Antiproliferative activity against human A549 cells assessed as cell viability at 50 uM measured after 72 hrs by sulforhodamine B assay. As to conditions: read-out: Activity. In kind it is functional.
Assay [2] has as its system NCI-H157. Description: Antiproliferative activity against human NCI-H157 cells assessed as reduction in cell viability measured after 72 hrs by sulforhodamine B assay. As to conditions: NCI-H157, 72 h. It counts as functional, cell-based. (The SRB assay estimates cell density from bound dye.)
For assay [3], the system named is NCI-H157. Briefly: Antiproliferative activity against human NCI-H157 cells assessed as cell viability at 50 uM measured after 72 hrs by sulforhodamine B assay. As to conditions: read-out: Activity. In kind it is functional.
Assay [4] deals with A549. Description: Antiproliferative activity against human A549 cells assessed as reduction in cell viability measured after 72 hrs by sulforhodamine B assay. In kind it is functional, cell-based. The conditions noted are these: A549, 72 h.
For another assay, the system named is HL-60. Briefly: Antiproliferative activity against human HL-60 cells assessed as reduction in cell viability incubated for 72 hrs by sulforhodamine B assay. The conditions noted are these: HL-60, 72 h. In kind it is functional, cell-based.
Another assay relates to U-87 MG. Description: Antiproliferative activity against human U-87MG cells assessed as reduction in cell viability incubated for 72 hrs by sulforhodamine B assay. It counts as functional, cell-based, U-87MG ATCC.
In the next assay the test system is U-251. Description: Antiproliferative activity against human U-251 cells assessed as reduction in cell viability incubated for 72 hrs by sulforhodamine B assay. It counts as functional, cell-based. The conditions noted are these: U-251, 72 h.

`CO[C@@]1(C)N(/C=C/c2ccccc2)C(=O)C2=C[C@@]3(C(=O)N(C)c4ccccc43)C(=O)N21`: the viability at 50 µM with A549 [1] and in the assay with NCI-H157 [3] was less than 50% each time. For the same compound, the figures for the IC50 in the assay on NCI-H157 [2] and in the assay on A549 [4] were 8.1 µM and 38.4 µM, respectively.
Turning to `CO[C@@]1(C)N(CCc2ccccc2)C(=O)c2cc3c4ccccc4n(C)c3c(=O)n21`, the viability at 50 µM in the assay with A549 [1] and with NCI-H157 [3] was less than 50% each time. The IC50 (as a rule, the point on the concentration scale where inhibition reaches its midpoint) in the assay with NCI-H157 [2] stood at 9.8 µM; in the assay on A549 [4], 12.9 µM.
In the case of `CO[C@@]1(C)N(/C=C\c2ccccc2)C(=O)c2cc3c4ccccc4n(C)c3c(=O)n21`, the viability at 50 µM in the assay with A549 [1] and in the assay on NCI-H157 [3] was less than 50% throughout. Moreover, the IC50 with NCI-H157 [2] turned out to be 7.2 µM; in the assay with A549 [4] it was 10.6 µM.
As for `CO[C@@]1(C)N(/C=C/c2ccccc2)C(=O)c2cc3c4ccccc4n(C)c3c(=O)n21`, the viability at 50 µM with A549 [1] and with NCI-H157 [3] was less than 50% throughout. Also, the IC50 in the assay with NCI-H157 [2] came out at 20.2 µM; in the assay with A549 [4], 21.6 µM.
On to `COc1cc(O)c2c(c1)C(=O)c1cc(C)cc(O)c1C2=O` [PHYSCION], for which the viability at 50 µM with A549 [1] and in the assay with NCI-H157 [3] was less than 50% each time. Also, the IC50 in the assay on NCI-H157 [2] came out at 3 µM; with A549 [4], 1.5 µM.
`CO[C@@]12Cc3ccc(cc3)O[C@H]3[C@@H]4[C@H]5C(=O)[C@](C[C@@H](O)[C@@]5(C)C=C(C)[C@H]4[C@]4(C)C[C@H](C)C[C@H](C)[C@@H]34)(C1)C(=O)N2`: the viability at 50 µM with A549 [1] and in the assay with NCI-H157 [3] was less than 50% each time. The IC50 in the assay with NCI-H157 [2] was determined as 17.8 µM; with A549 [4], 13.2 µM.
Regarding `C=C[C@@]1(C)C=C(C)[C@@H]2[C@@H]3[C@H](Oc4ccc(cc4)C[C@]45NC(=O)/C(=C(/O)[C@H]31)[C@H]4[C@@H]1C(=O)C(C)=C3[C@H](C)[C@@H](C)O[C@@]3(O)[C@]1(O)O5)[C@@H]1[C@@H](C)C[C@@H](C)C[C@]12C`, the viability at 50 µM in the assay on A549 [1] and in the assay with NCI-H157 [3] was less than 50% in each case. In addition, the results for the IC50 in the assay with NCI-H157 [2] and in the assay on A549 [4] were 22.3 µM and 12.3 µM, respectively.
As to `Cc1cc(O)cc(Oc2cc(C)cc(O)c2)c1` [DIORCINOL], the viability at 50 µM in the assay with A549 [1] and in the assay on NCI-H157 [3] was less than 50% each time. Moreover, the IC50 worked out at 20.2 µM in the assay with NCI-H157 [2] and 31.6 µM in the assay on A549 [4].
Take `C[C@H]1Oc2c(c(O)c3c4c(c(O)ccc24)OC3=O)C1(C)C`: the viability at 50 µM in the assay with A549 [1] and in the assay on NCI-H157 [3] was less than 50% throughout. The IC50 in the assay with NCI-H157 [2] is 41.9 µM; in the assay with A549 [4] it was 42.9 µM.
As to `CC(C)[C@@H](C)/C=C/[C@@H](C)[C@H]1CC[C@H]2C3=CC=C4C[C@@H](O)CC[C@]4(C)[C@H]3CC[C@]12C` [ERGOSTEROL], the viability at 50 µM in the assay with A549 [1] and with NCI-H157 [3] was less than 50% throughout. In addition, the IC50 in the assay on NCI-H157 [2] was determined as 23.3 µM; in the assay with A549 [4], 19.2 µM.
`CO[C@@]1(C)N(C[C@@H](O)c2ccccc2)C(=O)c2cc3c4ccccc4n(C)c3c(=O)n21`: the viability at 50 µM in the assay on A549 [1] and in the assay with NCI-H157 [3] was less than 50% throughout. For the same compound, the IC50 in the assay on NCI-H157 [2] came to 22.9 µM; in the assay on A549 [4], 44.3 µM.
As for `CO[C@@]1(C)N(/C=C/c2ccccc2)C(=O)c2cc3c([nH]c4ccccc43)c(=O)n21`, the viability at 50 µM in the assay on A549 [1] and in the assay with NCI-H157 [3] was less than 50% in each case. Also, the IC50 in the assay with NCI-H157 [2] came out at 15.1 µM; in the assay with A549 [4], 12.7 µM.
With `CC(=O)c1nc(C(=O)NCCc2ccccc2)cc2c1[nH]c1ccccc12`, the viability at 50 µM with A549 [1] and with NCI-H157 [3] was less than 50% each time. Besides, the IC50 stood at 19.4 µM in the assay with NCI-H157 [2] and 48.2 µM in the assay on A549 [4].
Regarding `C=C[C@@]1(C)C=C(C)[C@@H]2[C@@H]3[C@H](Oc4ccc(cc4)C[C@]4(OC)C[C@H](C(=O)N4)C(=O)[C@H]31)[C@@H]1[C@@H](C)C[C@@H](C)C[C@]12C`, the viability at 50 µM in the assay on A549 [1] and in the assay with NCI-H157 [3] was less than 50% throughout. Also, the figures for the IC50 in the assay on NCI-H157 [2] and in the assay on A549 [4] were 19.6 µM and 25.2 µM, respectively.
As to `CC1=C[C@]2(C)[C@H](O)C[C@]34C[C@](O)(Cc5ccc(cc5)O[C@H]5[C@H]([C@H]2C3=O)[C@@H]1[C@]1(C)C[C@H](C)C[C@H](C)[C@@H]51)NC4=O`, the IC50 in the assay on HL-60 came to 14.9 µM.
`CC1=C[C@]2(C)C(=O)C[C@]34C[C@](O)(Cc5ccc(cc5)O[C@H]5[C@@H]([C@@H]1[C@]1(C)C[C@H](C)C[C@H](C)[C@@H]51)[C@H]2C3=O)NC4=O`: the IC50 was 1.06 µM in the assay with U-87 MG and 1.28 µM in the assay on U-251.
As for `CC1=C([C@H](C)[C@@H](C)OC=O)C(=O)C2=C(C1=O)[C@@H]1O[C@H](C)[C@@H](C)c3c(C)c(O)cc(c31)O2` [CITRININ H1], the viability at 50 µM with A549 [1] and in the assay on NCI-H157 [3] was less than 50% each time. Further, the results for the IC50 in the assay on NCI-H157 [2] and in the assay with A549 [4] were 32.4 µM and 20.9 µM, respectively.
Regarding `O=c1ncc2ncn([C@@H]3O[C@@H](CO)[C@H](O)[C@@H]3O)c2[nH]1`, the viability at 50 µM in the assay on A549 [1] and in the assay with NCI-H157 [3] was less than 50% in each case. The values for the IC50 with NCI-H157 [2] and in the assay on A549 [4] were 0.9 µM and 28.6 µM, respectively.
Turning to `CC1=C[C@@]2(C)[C@@H]3C(=O)[C@]4(C[C@@H]2O)C[C@@](O)(Cc2ccc(cc2)O[C@H]2[C@H]3[C@@H]1[C@]1(C)C[C@H](C)C[C@H](C)[C@@H]21)NC4=O`, the viability at 50 µM in the assay on A549 [1] and with NCI-H157 [3] was less than 50% in each case. Further, the IC50 with U-87 MG is 12.4 µM; with NCI-H157 [2] it was 6.5 µM; in the assay with U-251, 22.8 µM; in the assay on A549 [4] it was 7.3 µM.
For the compound `Cc1cc(O)c2c(c1)C(=O)c1cccc(O)c1C2=O` [CHRYSOPHANOL], the viability at 50 µM in the assay with A549 [1] and with NCI-H157 [3] was less than 50% in each case. The IC50 is 2.7 µM in the assay on NCI-H157 [2] and 5.7 µM in the assay with A549 [4].
With `C=C[C@@]1(C)C=C(C)[C@@H]2[C@@H]3[C@H](Oc4ccc(cc4)C[C@@H]4C(=O)NC(=O)[C@@H]4C(=O)[C@H]31)[C@@H]1[C@@H](C)C[C@@H](C)C[C@]12C`, the viability at 50 µM with A549 [1] and in the assay with NCI-H157 [3] was less than 50% each time. In addition, the IC50 with NCI-H157 [2] amounted to 38.5 µM; in the assay on A549 [4], 10.3 µM.
Consider `CC1=C[C@@]2(C)[C@@H]3C(=O)[C@]4(C[C@@H]2O)C[C@](O)(Cc2ccc(cc2)O[C@H]2[C@H]3[C@@H]1[C@]1(C)C[C@H](C)C[C@H](C)[C@@H]21)NC4=O`, for which the IC50 with HL-60 worked out at 7.4 µM.
Turning to `O=C1c2cc(O)cc(O)c2C(=O)c2c1cc1c(c2O)[C@@H]2CCO[C@@H]2O1`, the viability at 50 µM in the assay with A549 [1] and with NCI-H157 [3] was less than 50% throughout. Also, the IC50 came to 27 µM with NCI-H157 [2] and 45.9 µM with A549 [4].
As to `CC(=O)c1nc(C(=O)NCCc2ccccc2)cc2c3ccccc3n(C)c12`, the viability at 50 µM with A549 [1] and with NCI-H157 [3] was less than 50% each time. The IC50 in the assay with NCI-H157 [2] was determined as 8.6 µM; in the assay with A549 [4] it was 18.2 µM.
Turning to `Cn1c2ccccc2c2cc3n(c(=O)c21)[C@@](C)(O)N(CCc1ccccc1)C3=O`, the viability at 50 µM with A549 [1] and in the assay with NCI-H157 [3] was less than 50% in each case. Also, the figures for the IC50 in the assay on NCI-H157 [2] and with A549 [4] were 11 µM and 21.2 µM, respectively.
